Literature values as cited in patent US20240082160A1, “AMLODIPINE DRY SUSPENSION AND PREPARATION METHOD THEREFOR” (GUANGZHOU APICHOPE PHARMACEUTICAL CO., LTD., priority 2021, published 2024).

For `CCOC(=O)C1=C(COCCN)NC(C)=C(C(=O)OC)C1c1ccccc1Cl` (stereo not shown) [amlodipine besylate], the solubility in water is given as “slightly soluble in water”.
